Laboratory results taken from patent US20070254903A1, “Novel Spiroindoline or Spiroisoquinoline Compounds, Methods of Use and Compositions Thereof” (ARENA PHARMACEUTICALS, INC., priority 2003, published 2007).

What follows are compounds tested against T1, human Mas receptor (Homo sapiens, UniProt P04201) (assay: Mas receptor IP3 assay (inverse agonist assay)). Settings: HEK293 cells over-expressing human Mas receptor; average from several experiments.
T1 construct: expressed in transfected cells
T1 sequence (P04201 1-325): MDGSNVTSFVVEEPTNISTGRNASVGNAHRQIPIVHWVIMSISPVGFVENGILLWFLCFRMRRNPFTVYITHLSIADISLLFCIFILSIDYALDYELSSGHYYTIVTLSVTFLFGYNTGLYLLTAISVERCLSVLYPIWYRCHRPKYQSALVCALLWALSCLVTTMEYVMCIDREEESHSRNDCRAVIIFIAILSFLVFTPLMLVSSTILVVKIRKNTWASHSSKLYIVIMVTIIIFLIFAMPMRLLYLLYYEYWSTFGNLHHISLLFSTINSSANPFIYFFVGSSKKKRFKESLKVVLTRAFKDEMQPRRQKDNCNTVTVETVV
Type: cell-based
Experimental: The Mas receptor IP3 assay was performed using a mammalian cell line (HEK293) which was transfected with a plasmid containing the human Mas receptor and selected for stable expression of the receptor. For the inverse agonist assay, higher levels of Mas receptor constitutive activity were desired. To achieve this, Mas receptor expression levels were increased by transiently transfecting the same Mas receptor stable cell line with additional human Mas receptor plasmid DNA following standard procedures. These cells were used in the Mas receptor IP3 assay approximately 24 hours post-transfection.
Cells were split into 96-well plates (50,000 cells/well) and allowed to attach for a period of 6 hours. The growth medium was then replaced with medium supplemented with 4 μCi/ml [^3H]myo-inositol (100 μl; Perkin Elmer Life Sciences) and the cells were allowed to incubate for approximately 20 hours. Test compounds were serially diluted in inositol-free media containing 10 mM LiCl. The media in the plates was removed by aspiration, replaced with these test compound solutions and incubated at 37° C. for 1 hour. Following this incubation, the media was removed by aspiration and replaced with buffer containing 0.1M formic acid. The plates were then frozen overnight at −80° C. to achieve complete cell lysis.
The following day, the assay plates were thawed at room temperature. The thawed contents were then transfered to 96-well filter plates (Millipore, Multiscreen) pre-loaded with resin (Biorad, AG1-X8 100-200 mesh, formate form). The plate was filtered using a vacuum manifold and the resin was washed multiple times with water. An elution buffer was then applied (200 μl, 0.2M Ammonium formate/0.1M formic acid) and the resulting eluent was collected, under vacuum, in a 96-well collection plate. Aliquots of the eluent (80 μl) were transferred to filter plates (Whatman, Unifilter GF/C) and dried in a 45° C. oven overnight. Dried plates were counted on a scintillation counter following the addition of an appropriate scintillant (Perkin Elmer Life Sciences, Optiphase Supermix or Hi-Safe 3).
For `C=CCN1CCC2(CC1)CN(C(=O)c1cccc3ccccc13)c1ccccc12` [Compound 133, 1′-(allyl)-1,2-dihydro-1-(naphthylene-1-carbonyl)-spiro[3H-indole-3,4′-piperidine]], the IC50 was 535 nM. For `C=CCN1CCC2(CC1)CN(C(=O)c1cccc(Cl)c1)c1ccc(F)cc12` [Compound 86, 1′-(allyl)-1,2-dihydro-5-fluoro-1-(3-chloro-benzoyl)-spiro[3H-indole-3,4′-piperidine]], the IC50 was 705 nM. Work on `C=CCN1CCC2(CC1)CN(C(=O)c1cccc(C(Cl)Cl)c1)c1ccc(F)cc12` [Compound 92, 1′-(allyl)-1,2-dihydro-5-fluoro-1-(3-dichloromethyl-benzoyl)-spiro[3H-indole-3,4′-piperidine]] yielded an IC50 of 592 nM. For `O=C(c1ccc2ccccc2c1)N1CC2(CCN(CC3CC3)CC2)c2cc(F)ccc21` [Compound 160, 1′-(cyclopropylmethyl)-1,2-dihydro-5-fluoro-1-(naphthylene-2-carbonyl)-spiro[3H-indole-3,4′-piperidine]], the IC50 was 721 nM. With `COc1ccc(C(=O)N2CC3(CCN(CC4CC4)CC3)c3cc(F)ccc32)cc1` [Compound 31, 1′-(cyclopropylmethyl)-1,2-dihydro-5-fluoro-1-(4-methoxy-benzoyl)-spiro[3H-indole-3,4′-piperidine]] the IC50 was 900 nM. `O=C(N1CC2(CCN(CC3CC3)CC2)c2cc(F)ccc21)C12CC3CC(CC(C3)C1)C2` [Compound 168, 1′-(cyclopropylmethyl)-1,2-dihydro-5-fluoro-1-(adamantane-1-carbonyl)-spiro[3H-indole-3,4′-piperidine]] was tested, and the IC50 was 502 nM. `C=CCN1CCC2(CC1)CN(C(=O)c1ccc(F)cc1F)c1ccc(F)cc12` [Compound 76, 1′-(allyl)-1,2-dihydro-5-fluoro-1-(2,4-difluoro-benzoyl)-spiro[3H-indole-3,4′-piperidine]] was tested, and the IC50 was 936 nM. `C=CCN1CCC2(CC1)CN(C(=O)c1cccnc1SC)c1ccc(F)cc12` [Compound 215, 1′-(allyl)-1,2-dihydro-5-fluoro-1-(2-methylsulfanyl-pyridine-3-carbonyl)-spiro[3H-indole-3,4′-piperidine]] was tested, and the IC50 was 607 nM. With `C=CCN1CCC2(CC1)CN(C(=O)c1cccnc1Cl)c1ccc(F)cc12` [Compound 93, 1′-(allyl)-1,2-dihydro-5-fluoro-1-(2-chloro-pyridine-3-carbonyl)-spiro[3H-indole-3,4′-piperidine]] the IC50 was 841 nM. `CN1CCC2(CC1)CN(C(=O)c1cccc(C(Cl)Cl)c1)c1ccc(F)cc12` [Compound 199, 1′-(methyl)-1,2-dihydro-5-fluoro-1-(3-dichloromethyl-benzoyl)-spiro[3H-indole-3,4′-piperidine]] gave an IC50 of 382 nM. Work on `C=CCN1CCC2(CC1)CN(C(=O)c1cc(Cl)sc1Cl)c1ccc(F)cc12` [Compound 211, 1′-(allyl)-1,2-dihydro-5-fluoro-1-(2,5-dichloro-thiophene-3-carbonyl)-spiro[3H-indole-3,4′-piperidine]] yielded an IC50 of 855 nM. In the case of `O=C(c1cccc2ccccc12)N1CC2(CCN(CC3CC3)CC2)c2cc(F)ccc21` [Compound 159, 1′-(cyclopropylmethyl)-1,2-dihydro-5-fluoro-1-(naphthylene-1-carbonyl)-spiro[3H-indole-3,4′-piperidine]], the IC50 is reported as 505 nM. Compound `O=C1c2ccccc2-c2cccc(C(=O)N3CC4(CCN(CC5CC5)CC4)c4cc(F)ccc43)c21` [Compound 153, 1′-(cyclopropylmethyl)-1,2-dihydro-5-fluoro-1-(9-oxo-9H-fluorene-1-carbonyl)-spiro[3H-indole-3,4′-piperidine]] has an IC50 of 774 nM. For `C=CCN1CCC2(CC1)CN(S(=O)(=O)c1ccc(Cl)s1)c1ccc(F)cc12` [Compound 214, 1′-(allyl)-1,2-dihydro-5-fluoro-1-(5-chloro-thiophene-2-sulfonyl)-spiro[3H-indole-3,4′-piperidine]], the IC50 was 455 nM. With `O=C(c1cccc(F)c1F)N1CC2(CCN(CC3CC3)CC2)c2cc(F)ccc21` [Compound 142, 1′-(cyclopropylmethyl)-1,2-dihydro-5-fluoro-1-(2,3-difluoro-benzoyl)-spiro[3H-indole-3,4′-piperidine]] the IC50 was 480 nM. `C=CCN1CCC2(CC1)CN(S(=O)(=O)c1cc(Cl)c(Cl)s1)c1ccc(F)cc12` [Compound 210, 1′-(allyl)-1,2-dihydro-5-fluoro-1-(4,5-dichloro-thiophene-2-sulfonyl)-spiro[3H-indole-3,4′-piperidine]] was tested, and the IC50 was 890 nM. Work on `C=CCN1CCC2(CC1)CN(C(=O)c1ccc(Br)s1)c1ccc(F)cc12` [Compound 223, 1′-(allyl)-1,2-dihydro-5-fluoro-1-(5-bromo-thiophene-2-carbonyl)-spiro[3H-indole-3,4′-piperidine]] yielded an IC50 of 307 nM. With `C=CCN1CCC2(CC1)CN(C(=O)c1ccc3c(c1)OCO3)c1ccc(F)cc12` [Compound 89, 1′-(allyl)-1,2-dihydro-5-fluoro-1-(benzo[1,3]dioxole-5-carbonyl)-spiro[3H-indole-3,4′-piperidine]] the IC50 was 989 nM. Compound `C=CCN1CCC2(CC1)CN(S(=O)(=O)c1ccccc1Cl)c1ccc(F)cc12` [Compound 206, 1′-(allyl)-1,2-dihydro-5-fluoro-1-(2-chloro-benzenesulfonyl)-spiro[3H-indole-3,4′-piperidine]] has an IC50 of 303 nM. `C=CCN1CCC2(CC1)CN(C(=O)c1ccccc1F)c1ccc(OC)cc12` [Compound 204, 1′-(allyl)-1,2-dihydro-5-methoxy-1-(2-fluoro-benzoyl)-spiro[3H-indole-3,4′-piperidine]] was tested, and the IC50 was 554 nM. With `O=C(c1cccc(Cl)c1)N1CC2(CCN(CC3CC3)CC2)c2cc(F)ccc21` [Compound 165, 1′-(cyclopropylmethyl)-1,2-dihydro-5-fluoro-1-(3-chloro-benzoyl)-spiro[3H-indole-3,4′-piperidine]] the IC50 was 757 nM. `O=C(c1cccc(C(Cl)Cl)c1)N1CC2(CCN(CC3CC3)CC2)c2cc(F)ccc21` [Compound 147, 1′-(cyclopropylmethyl)-1,2-dihydro-5-fluoro-1-(3-dichloromethyl-benzoyl)-spiro[3H-indole-3,4′-piperidine]] showed an IC50 of 735 nM. With `C=CCN1CCC2(CC1)CN(C(=O)c1ccc(F)c(C(F)(F)F)c1)c1ccc(F)cc12` [Compound 88, 1′-(allyl)-1,2-dihydro-5-fluoro-1-(3-trifluoromethyl-4-fluoro-benzoyl)-spiro[3H-indole-3,4′-piperidine]] the IC50 was 896 nM. `C=CCN1CCC2(CC1)CN(C(=O)c1ccc([N+](=O)[O-])cc1)c1ccc(F)cc12` [Compound 83, 1′-(allyl)-1,2-dihydro-5-fluoro-1-(4-nitro-benzoyl)-spiro[3H-indole-3,4′-piperidine]] was tested, and the IC50 was 757 nM. For `C=CCN1CCC2(CC1)CN(S(=O)(=O)c1ccccc1F)c1ccc(F)cc12` [Compound 229, 1′-(allyl)-1,2-dihydro-5-fluoro-1-(2-fluoro-benzenesulfonyl)-spiro[3H-indole-3,4′-piperidine]], the IC50 was 846 nM. Compound `C=CCN1CCC2(CC1)CN(C(=O)c1cc(OC)cc(OC)c1)c1ccc(F)cc12` [Compound 73, 1′-(allyl)-1,2-dihydro-5-fluoro-1-(3,5-dimethoxy-benzoyl)-spiro[3H-indole-3,4′-piperidine]] has an IC50 of 867 nM. With `O=S(=O)(c1ccc(Cl)cc1Cl)N1CC2(CCN(CC3CC3)CC2)c2cc(F)ccc21` [Compound 192, 1′-(cyclopropylmethyl)-1,2-dihydro-5-fluoro-1-(2,4-dichloro-benzenesulfonyl)-spiro[3H-indole-3,4′-piperidine]] the IC50 was 891 nM.
